Common to all, as to test: NCI anticancer screen, dose series, 48 h
Experiment [1] relates to UACC-62 melanoma.
Experiment [2] has as its system MDA-MB-231 breast.
Experiment [3] has as its system HL-60(TB) leukemia.
For experiment [4], the system named is NCI-H460 lung.
For experiment [5], the system named is RPMI-8226 leukemia.
Experiment [6] has as its system MDA-MB-435.
Experiment [7] concerns DU-145 prostate.
Experiment [8] concerns CCRF-CEM leukemia.
The subject of experiment [9] is NCI/ADR-RES ovarian.

The structures appear in SMILES notation.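 Grown in 96-well plates, cells were treated for 48 hours with each compound at five concentrations. Insufficient inhibition: endpoint recorded as highest concentration tested. Definition used: TGI = concentration required for complete inhibition of growth.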

On to `COc1ccc(N2C(=O)C3ON(C(C(N)=O)c4ccccc4)C(c4ccc(-c5ccccc5)cc4)C3C2=O)cc1` (stereo not drawn), for which the TGI in [1], in experiment [2], in experiment [3], in [4], in experiment [5] and in experiment [6] was > 50 µM in each case. Besides, the TGI in experiment [7], in experiment [8] and in [9] was > 50 µM throughout.

Regarding `O=c1[nH]c(Nc2cccc(C(F)(F)F)c2)nc2nc[nH]c12`, the TGI in experiment [2], in [3], in experiment [5], in [6], in experiment [7] and in experiment [8] was > 100 µM throughout. Also, in experiment [9], the TGI was > 100 µM.

As for `CCCCCCOc1ccc(C(=O)NOCc2ccccc2)cc1`, the TGI in [1], in experiment [2], in [3], in experiment [4], in [5] and in experiment [6] was > 100 µM in each case. The TGI in [7], in experiment [8] and in [9] was > 100 µM in each case.

For `O=[N+]([O-])c1cccc2nc3ccccc3c(NCCc3cccc[n+]3[O-])c12`, the TGI was 0.211 µM in experiment [1]; 0.0538 µM in [2]; 0.277 µM in experiment [3]; 0.174 µM in [4]; 0.0679 µM in [5]; < 0.0184 µM in experiment [6]. The TGI in experiment [7] is < 0.0277 µM; in experiment [9], 8.67 µM.

Consider `CC1CC[C@@]2(OC1)OC1C[C@H]3[C@@H]4C/C(=N\N(C)C)[C@@]5(O)CC(O)CC[C@]5(C)[C@H]4CC[C@]3(C)C1[C@@H]2C` (stereo partly drawn), for which the TGI was > 100 µM in [1]; > 100 µM in experiment [2]; 54.3 µM in experiment [3]; > 100 µM in experiment [4]; > 100 µM in [5]; > 100 µM in [6]. Moreover, the TGI in [7], in experiment [8] and in experiment [9] was > 100 µM throughout.

`O=C1Nc2cccc(Cl)c2/C1=C\c1c(Cl)nc2sccn12`: the TGI was > 100 µM in experiment [1]; 40.3 µM in experiment [2]; > 100 µM in experiment [3]; > 100 µM in experiment [4]; > 100 µM in [5]; > 100 µM in [6]. Also, the TGI in experiment [7], in experiment [8] and in experiment [9] was > 100 µM each time.

As for `CCc1n[nH]c(=O)n1/N=C/c1ccccc1Cl`, the TGI in [1], in experiment [2], in experiment [3], in experiment [4], in [5] and in experiment [6] was > 100 µM each time. In addition, the TGI in experiment [7], in [8] and in experiment [9] was > 100 µM each time.

Take `COc1ccc2nc3cccc([N+](=O)[O-])c3c(NCCO)c2c1`: the TGI in [1] was 0.0481 µM; in [2] it was 0.041 µM; in [3], 0.0943 µM; in experiment [4] it was 0.0233 µM; in [5], 0.019 µM; in experiment [6] it was 0.0186 µM. For the same compound, the TGI came to 0.0619 µM in experiment [7], 2.68 µM in experiment [8] and 0.0939 µM in experiment [9].

With `CC1(C2(C)OC(=O)c3ccccc32)OC(=O)c2ccccc21` (stereo not drawn), the TGI in [1], in [2], in [3], in [4], in experiment [5] and in [6] was > 100 µM in each case. For the same compound, the TGI in [7] and in experiment [9] was > 100 µM each time.

With `O=C1NC(Cc2c[nH]c3ccccc23)C(=O)N2C(C3CCCCC3)c3[nH]c4ccccc4c3C[C@@H]12` (stereo partly drawn), the TGI in experiment [1] was 34.5 µM; in [2] it was 30.6 µM; in experiment [3], 42.9 µM; in experiment [5] it was 32.8 µM; in [6] it was 24.6 µM; in experiment [7], > 100 µM. Also, the TGI in experiment [9] was determined as 41.2 µM.

On to `N#CCCN(CCC#N)c1ccc(C(N=Nc2ccccc2)=Nc2ccccc2)cc1`, for which the TGI in experiment [1], in experiment [2], in experiment [4], in [5], in experiment [6] and in [7] was > 100 µM throughout. Also, the TGI in experiment [8] and in [9] was > 100 µM each time.

For `O=C(O)C1CCCN1Cc1cc2ccccc2c2ccccc12` (stereo not drawn), the TGI in experiment [1], in experiment [2], in experiment [3], in [4], in [5] and in experiment [6] was > 100 µM in each case. In addition, the TGI in [7] and in experiment [9] was > 100 µM each time.

Turning to `CC1(C)CC[C@]2(C)CC=C3[C@]4(C)CC[C@H]5C(C)(C)C(=O)CC[C@]5(C)[C@H]4CC[C@@]3(C)[C@H]2C1`, the TGI in [1], in experiment [2], in experiment [5], in experiment [6], in experiment [7] and in experiment [8] was > 100 µM each time. The TGI in experiment [9] is > 100 µM.

As to `COC(=O)C(O)P(=O)(OC)OC` (stereo not drawn), the TGI in experiment [1], in experiment [2], in experiment [3], in experiment [5], in experiment [6] and in [7] was > 100 µM throughout. The TGI in experiment [9] is > 100 µM.

Regarding `Cc1c(CCOC=O)c(=O)[nH]c2nncn12`, the TGI in [1], in experiment [2], in [3], in experiment [4], in [5] and in experiment [6] was > 100 µM in each case. Besides, the TGI in experiment [7], in [8] and in [9] was > 100 µM throughout.
